Experimental data reported in article PMC6328891, “Synthetic bovine lactoferrin peptide Lfampin kills Entamoeba histolytica trophozoites by necrosis and resolves amoebic intracecal infection in mice” (Bioscience Reports, 2019).
pIC50: −log10 of the molar value. Like-named read-outs stand apart in the source and are kept apart here. Ends that are not written are not given here.

Legend:
[1] = tested on: E. histolytica HM1:IMSS trophozoites; assay type: cell-based, Entamoeba histolytica; details: MTT, 24 h
Method: Axenic E. histolytica HM1:IMSS trophozoites were maintained in TYI-S-33 medium supplemented with 15% adult bovine serum (Microlab) and 3% Diamond vitamin stock solution 40× (Sigma-Aldrich) under anaerobic conditions at 37°C for 72 h. Virulence of trophozoites was maintained through successive passages into hamster liver, followed by recovery of parasites from the induced amoebic liver abscesses. Trophozoites grown for 72 h (log-phase) were harvested by ice-chilling for 5 min and centrifugation at 150 g for 5 min at 4°C.
Trophozoites were harvested from cultures after 72 h, as mentioned above, and were seeded in 96-well culture plates at 2 × 10^4 trophozoites in 200 μl of fresh TYI-S-33 medium. […] The plates were incubated for 24 h at 37°C and viability was determined using 3-[4,5-dimethylthiazol-2-yl]-2,5-diphenyltetrazolium bromide (MTT). […] Finally, the absorbance at 595 nm was measured within 15 min, using a plate reader Multiskan FC (Thermo Scientific). A MTT calibration curve was previously calculated using amoeba densities of between 1 × 10^3 and 1 × 10^5 parasites/well. […] The total number of parasites after treatments was also determined following the same methodology, but adding to the wells only 250 µM of the peptides separately and incubating for 24 h at 37°C. Amoebas were harvested by ice chilling for 5 min and counted on a hemocytometer using a Nikon TMS inverted microscope.

E. histolytica = details: 20 mg/kg orally daily for 7 days, murine model, cited from earlier work
Source text: Intestinal parasite infections, including amoebiasis, remain the main causes of morbidity and mortality in developing countries. In Mexico, amoebiasis is included in the list of the 20 most frequent communicable diseases, as the numbers of new cases of intestinal and hepatic amoebiasis in 2016 were approximately 220000 and 560, respectively, according to the Secretary of Health (http://www.epidemiologia.salud.gob.mx/anuario/2016/morbilidad/nacional/distribucion_casos_nuevos_enfermedad_fuente_notificacion.pdf). Treatment with metronidazole and other nitro-imidazole derivatives remains the ... || Finally, our results regarding the high efficiency of the peptides at resolving murine intestinal amoebiasis opens the possibility of using them as potential new compounds for the treatment of the disease, either alone or in combination with metronidazole. This would reduce the concentration of the drug needed to resolve an amoebic infection and, in turn, reduce the adverse effects of the drug and the potential development of resistance in the parasite. The mechanism by which the peptides controlled intestinal infection by amoebas in mice remains unknown. The higher efficiency of Lfampin, whic ...

Substance	pIC50 ([1]; 37°C, estimated (Supplementary Figure S1))	trophozoites killed ([1]; doses higher than 100 μM) [%]	intestinal infection resolved (E. histolytica)	intestinal infection resolved (E. histolytica; listed as native Lf) [%]
DLIWKLLSKAQEKFGKNKSR [Lfampin]	3.66	80		
lactoferrin			up to 63%	63
